The assay concerns hMSCs. Put plainly: Membrane integrin expression by flow cytometric analysis. It counts as cell-based, human. Set-up: CD49a x-mean / CD49b x-mean / CD49c x-mean / CD49e x-mean / CD51 x-mean / CD29 x-mean / CD36 x-mean / CD44 x-mean: unit not given here. As for the experimental part: For immunophenotyping, MSCs were recovered by brief trypsinization and incubated with one or more fluorophore-tagged antibodies or respective isotype controls for 30 min in a phosphate-buffered saline (PBS) containing 2% (v/v) FBS. After about three washes, a minimum of 20,000 cells were analyzed on a flow cytometer and data processed using machine-compatible software. Antibodies against the following cell surface antigens were used, including CD11b (clone BEAR1), CD14 (RM052), CD19 (J3-119), CD29 (MAR4), CD34 (581), CD36 (FA6.152), CD44 ([…]-26), CD45 (J.33), CD49a (SR84), CD49b (Gi9), CD49c (C3 II.1), CD49e (IIA1), CD51 (23C6), CD73 (AD2), CD79a (HM47), CD90 (Thy-1/310), CD105 (IG2), CD146 (TEA1/34), CD166 (3[…] (Tu39).

Turning to `O=C(Nc1ccccc1)c1cc([N+](=O)[O-])ccc1Cl` [GW9662, 2-chloro-5-nitro-N-phenyl-benzamide], for the setting “GW-treatment”, the CD29 % pos is reported as 99.97%, the CD29 x-mean is on record as 135, the CD36 % pos was determined as 0.68% and the CD36 x-mean is recorded as 1.89. Moreover, where the note is “GW-treatment”, the CD44 % pos is given as 96.24%, the CD44 x-mean came out at 7.84, the CD49a % pos was 87.07% and the CD49a x-mean is reported as 3.28. Where the note is “GW-treatment”, this compound had a CD49b % pos of 43.09%, a CD49b x-mean of 5.69, a CD49c % pos of 99.93% and a CD49c x-mean of 21.80. For the setting “GW-treatment”, the CD49e % pos came out at 99.99%, the CD49e x-mean stood at 81.50, the CD51 % pos is 99.92% and the CD51 x-mean is on record as 15.30. Moreover, the “CD36 on the surface of hMSCs” value (irrespective of GW9662 treatment) is given as “No substantial expression”.

(Values after patent US9452185B2, “Mesenchymal stem cells and supports for tissue regeneration, repair and reconstruction” (THE TEXAS A&M UNIVERSITY SYSTEM, priority 2009, dated 2016).)
